Source: PubChem BioAssay (NCI)
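GI50 is the concentration that inhibits growth by half. Definition used: TGI = concentration required for complete inhibition of growth.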

Experiments:
Assay in all cases: NCI tumour cell line growth inhibition, 384-well format
[1] = system: COLO 205 colon
[2] = system: HL-60(TB) leukemia
[3] = system: HT29 colon
[4] = system: NCI-H522 lung
[5] = system: SW-620 colon
[6] = system: NCI/ADR-RES ovarian
[7] = system: OVCAR-5 ovarian
[8] = system: DU-145 prostate
[9] = system: UACC-62 melanoma
[10] = system: CAKI-1 renal
[11] = system: RPMI-8226 leukemia
[12] = system: MDA-MB-231 breast
[13] = system: A498 renal
[14] = system: MDA-MB-468 breast
[15] = system: SN12C renal
[16] = system: OVCAR-3 ovarian
[17] = system: UO-31 renal
[18] = system: NCI-H226 lung
[19] = system: T-47D breast
[20] = system: HCT-15 colon
[21] = system: HCC-2998 colon
[22] = system: MDA-MB-435 melanoma
[23] = system: M14 melanoma
[24] = system: SK-MEL-28 melanoma
[25] = system: MALME-3M melanoma
[26] = system: ACHN renal
[27] = system: HCT-116 colon
[28] = system: PC-3 prostate
[29] = system: LOX IMVI melanoma
[30] = system: RXF 393 renal
[31] = system: SF-295 CNS
[32] = system: SNB-19 CNS
[33] = system: BT-549 breast
[34] = system: NCI-H322M lung
[35] = system: UACC-257 melanoma
[36] = system: HOP-92 NSCLC
[37] = system: SK-OV-3 ovarian
[38] = system: K-562 leukemia
[39] = system: IGROV1 ovarian
[40] = system: SF-268 CNS
[41] = system: SR leukemia
[42] = system: SK-MEL-2 melanoma
[43] = system: NCI-H23 lung
[44] = system: KM12 colon
[45] = system: CCRF-CEM leukemia
[46] = system: TK-10 renal
[47] = system: SF-539 CNS
[48] = system: U251 glioblastoma
[49] = system: OVCAR-4 ovarian
[50] = system: OVCAR-8 ovarian
[51] = system: MOLT-4 leukemia
[52] = system: A549 NSCLC
[53] = system: NCI-H460 NSCLC
[54] = system: 786-0 renal
[55] = system: HOP-62 NSCLC
[56] = system: SK-MEL-5 melanoma
[57] = system: MCF7 breast

COc1cc2c(cc1OC(C)C)[C@H](c1ccc(Cl)cc1)N(c1ccc(N(C)CC3CCC(N4CCN(C)C(=O)C4)CC3)cc1)C(=O)C2 (some centres undefined)
GI50 [1]: 1.86 µM | TGI [1]: 3.29 µM | GI50 [2]: 1.96 µM | TGI [2]: 3.38 µM | GI50 [3]: 1.79 µM | TGI [3]: 3.22 µM | GI50 [4]: 1.86 µM | TGI [4]: 3.33 µM | GI50 [5]: 1.91 µM | TGI [5]: 3.36 µM | GI50 [6]: 1.77 µM | TGI [6]: 3.22 µM | GI50 [7]: 1.85 µM | TGI [7]: 3.31 µM | GI50 [8]: 1.92 µM | TGI [8]: 3.51 µM | GI50 [9]: 0.0924 µM | TGI [9]: 1.58 µM | GI50 [10]: 0.146 µM | TGI [10]: 1.18 µM | GI50 [11]: 1.53 µM | TGI [11]: 2.88 µM | GI50 [12]: 1.8 µM | TGI [12]: 3.2 µM | GI50 [13]: 0.24 µM | TGI [13]: 1.32 µM | GI50 [14]: 2.03 µM | TGI [14]: 3.47 µM | GI50 [15]: 1.81 µM | TGI [15]: 3.22 µM | GI50 [16]: 1.69 µM | TGI [16]: 3.08 µM | GI50 [17]: 0.288 µM | TGI [17]: 1.31 µM | GI50 [18]: 0.134 µM | TGI [18]: 0.374 µM | GI50 [19]: 1.76 µM | TGI [19]: 3.23 µM | GI50 [20]: 1.82 µM | TGI [20]: 3.26 µM | GI50 [21]: 1.73 µM | TGI [21]: 3.12 µM | GI50 [22]: 2.01 µM | TGI [22]: 3.46 µM | GI50 [23]: 0.943 µM | TGI [23]: 2.16 µM | GI50 [24]: 1.79 µM | TGI [24]: 3.19 µM | GI50 [25]: 1.18 µM | TGI [25]: 2.43 µM | GI50 [26]: 0.243 µM | TGI [26]: 1.28 µM | GI50 [27]: 0.349 µM | TGI [27]: 1.49 µM | GI50 [28]: 1.79 µM | TGI [28]: 3.19 µM | GI50 [29]: 0.946 µM | TGI [29]: 2.13 µM | GI50 [30]: 1.69 µM | TGI [30]: 3.07 µM | GI50 [31]: 1.62 µM | TGI [31]: 2.99 µM | GI50 [32]: 1.94 µM | TGI [32]: 3.49 µM | GI50 [33]: 1.58 µM | TGI [33]: 2.94 µM | GI50 [34]: 1.71 µM | TGI [34]: 3.27 µM | GI50 [35]: 1.35 µM | TGI [35]: 2.64 µM | GI50 [36]: 1.59 µM | TGI [36]: 2.96 µM | GI50 [37]: 1.58 µM | TGI [37]: 2.94 µM | GI50 [38]: 1.76 µM | TGI [38]: 3.17 µM | GI50 [39]: 1.37 µM | TGI [39]: 2.7 µM | GI50 [40]: 1.9 µM | TGI [40]: 3.34 µM | GI50 [41]: 0.0291 µM | TGI [41]: 0.101 µM | GI50 [42]: 1.81 µM | TGI [42]: 3.21 µM | GI50 [43]: 1.93 µM | TGI [43]: 4.37 µM | GI50 [44]: 1.9 µM | TGI [44]: 3.35 µM | GI50 [45]: 1.94 µM | TGI [45]: 3.36 µM | GI50 [46]: 1.82 µM | TGI [46]: 3.31 µM | GI50 [47]: 1.74 µM | TGI [47]: 3.14 µM | GI50 [48]: 1.75 µM | TGI [48]: 3.16 µM | GI50 [49]: 1.76 µM | TGI [49]: 3.18 µM | GI50 [50]: 1.82 µM | TGI [50]: 3.25 µM | GI50 [51]: 0.0378 µM | TGI [51]: 0.138 µM | GI50 [52]: 0.387 µM | TGI [52]: 1.55 µM | GI50 [53]: 0.316 µM | TGI [53]: 1.42 µM | GI50 [54]: 1.72 µM | TGI [54]: 3.12 µM | GI50 [55]: 2.07 µM | TGI [55]: 3.52 µM | GI50 [56]: 1.3 µM | TGI [56]: 2.58 µM | GI50 [57]: 0.378 µM | TGI [57]: 1.57 µM
